Assay [1] deals with Tg(Dyrk1a) mice. The assay can be described thus: Y-maze working memory in Tg(Dyrk1a) mice. The assay is classed as in vivo, mouse. To be noted: L41-treated Tg(Dyrk1a) mice.
For another assay, the target named is CLK3 (Mus musculus, UniProt O35492). The assay can be described thus: Recombinant protein kinase assay, CLK3. The assay is classed as biochemical.
Assay [2] addresses T1, DYRK1A (Mus musculus, UniProt Q61214).
T1 construct: DYRK1A was purified from brain extracts by immunoprecipitation; from tissue; host or cells: mouse brain (wt, Tg(Dyrk1a), Ts65Dn)
The assay can be described thus: Brain DYRK1A catalytic activity after treatment, Tg(Dyrk1a) mice. The assay is classed as in vivo. How it is done:
(§1) Protein kinase assays to measure the catalytic activity of DYRK1A in the brains of the animals treated with or without drugs were performed as follows: frozen half brains were homogenized in lysis buffer (1.2 ml/half brain) using Precellys® homogenizer tubes. After centrifugation at 2800 g for 2×15 s, 1 mg brain extract was incubated with 2 µg DYRK1A (H00001859 M01, Interchim) or GSK3-β (MBS8508391, Emelca Bioscience, France) antibodies at 4°C for 1 h under gentle rotation. Then, 20 µl protein G agarose beads (Thermo Fisher Scientific, France), previously washed three times with bead buffer (50 mM Tris pH 7.4, 5 mM NaF, 250 mM NaCl, 5 mM EDTA, 5 mM EGTA, 0.1% Nonidet P-40 and protease inhibitor cocktail from Roche, France), were added to the mix and gently rotated at 4°C for 30 min. After a 1 min spin at 10,000 g and removal of the supernatant, the pelleted immune complexes were washed three times with bead buffer, and a last time with Buffer C (60 mM β-glycerophosphate, 30 mM p-nitrophenolphosphate, 25 mM Mops pH 7.2, 5 mM EGTA, 15 mM MgCl2, 2 mM dithiothreitol, 0.1 mM sodium orthovanadate, 1 mM phenylphosphate, protease inhibitor cocktail). DYRK1A or GSK-3 immobilized on beads were assayed in buffer C as described in the Supplementary Materials and Methods with Woodtide ([…]) (1.5 µg/assay) or GSK3-tide ([…]pSED-EEE, where pS stands for phosphorylated serine) as substrates.

A further assay relates to Dyrk1a mRNA. The assay can be described thus: Brain Dyrk1a mRNA expression by qPCR after treatment. The assay is classed as in vivo, mouse. The note with it: 19 days daily i.p., Tg(Dyrk1a), Ts65Dn and wt brains. An excerpt:
To validate the Tg(Dyrk1a) and Ts65Dn models in terms of DYRK1A expression and function, we first verified the expression levels of Dyrk1a mRNA (Fig. 4A) and DYRK1A protein (Fig. 4B) in brains derived from control or L41-treated animals (19 days, daily i.p.). Total mRNAs were extracted from brains and Dyrk1a, Gsk-3b and Rplp0 mRNAs were quantified by quantitative polymerase chain reaction (qPCR) with specific primers. […] We next measured DYRK1A catalytic activities from transgenic and wt brain protein extracts (Fig. 4C). […] As expected, DYRK1A activity was elevated by ∼1.5- to 1.8-fold in transgenic brains compared with wt brains (Fig. 4C).
Fig. 4. Dyrk1a mRNA and DYRK1A protein expression, and catalytic activity in Tg(Dyrk1a) and corresponding wt mice brains, and in Ts65Dn and corresponding wt mice brains. (A) mRNA expression. Total RNA was extracted, purified and reverse transcribed into cDNA. mRNA expression of Dyrk1a, Gsk-3b and reference Rplp0 was quantified by qPCR from the amplification of cDNA with specific primers (one primer annealing to an exon-exon junction). Results are presented as mean±s.e. of four to six measurements and are shown relative to Rplp0 expression, normalized to wt Gsk-3b expression. (B) Protein expression. Total proteins were extracted, resolved by SDS-PAGE and analysed by WB using antibodies directed against DYRK1A, GSK-3α/β and actin (loading control). […]

In another assay the test system is Ts65Dn mice. The assay can be described thus: Novel object recognition (NOR) test in Ts65Dn mice. The class given is in vivo, mouse. To be noted: daily i.p. treatment for 19 days. Here is the method:
Behavioural studies were conducted in 12- to 20-week-old male animals. All assessments were scored blind to genotype and treatment, as recommended by the ARRIVE guidelines ([Karp et al., 2015]; [Kilkenny et al., 2010]). […] The final formulation was prepared just prior to use as a 2 mg/ml solution diluted in PEG300/water (50/45), to reach a final DMSO/PEG300/water 5/50/45 (v/v/v) mix. Treated animals received a daily dose (5, 12 or 19 days) of this formulation by i.p. injection of 20 mg/kg/day. Nontreated animals received the same formulation without L41.
The NOR task is based on the innate tendency of rodents to differentially explore a novel object over a familiar one ([Ennaceur and Delacour, 1988]). Day 1 was a habituation session. Mice freely explored the apparatus, a white circular arena (53 cm diameter) placed in a dimly lit testing room (40 lux). On day 2, the acquisition phase, mice were free to explore two identical objects for 10 min. Mice were then returned to their home cage for a 24 h retention interval. […] Object exploration was manually scored and defined as the orientation of the nose to the object at a distance <1 cm. For the retention phase, the percent of time spent exploring familiar versus novel objects was calculated to assess memory performance.

In a further assay the target is T2, CDK9/cyclin T (Homo sapiens, UniProt P50750).
T2 construct: made in house; host or cells: insect cells
T2 sequence (P50750 whole entry): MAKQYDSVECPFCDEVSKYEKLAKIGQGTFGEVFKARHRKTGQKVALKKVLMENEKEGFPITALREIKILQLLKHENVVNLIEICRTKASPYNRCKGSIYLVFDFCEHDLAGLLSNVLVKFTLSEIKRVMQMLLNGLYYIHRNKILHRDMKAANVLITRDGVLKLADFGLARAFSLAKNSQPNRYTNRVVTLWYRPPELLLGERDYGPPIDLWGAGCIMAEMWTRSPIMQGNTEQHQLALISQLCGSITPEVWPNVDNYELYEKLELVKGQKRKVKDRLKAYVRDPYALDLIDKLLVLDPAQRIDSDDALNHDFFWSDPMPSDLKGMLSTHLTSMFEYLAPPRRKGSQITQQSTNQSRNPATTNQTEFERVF
T2 sequence (O60563 whole entry partner): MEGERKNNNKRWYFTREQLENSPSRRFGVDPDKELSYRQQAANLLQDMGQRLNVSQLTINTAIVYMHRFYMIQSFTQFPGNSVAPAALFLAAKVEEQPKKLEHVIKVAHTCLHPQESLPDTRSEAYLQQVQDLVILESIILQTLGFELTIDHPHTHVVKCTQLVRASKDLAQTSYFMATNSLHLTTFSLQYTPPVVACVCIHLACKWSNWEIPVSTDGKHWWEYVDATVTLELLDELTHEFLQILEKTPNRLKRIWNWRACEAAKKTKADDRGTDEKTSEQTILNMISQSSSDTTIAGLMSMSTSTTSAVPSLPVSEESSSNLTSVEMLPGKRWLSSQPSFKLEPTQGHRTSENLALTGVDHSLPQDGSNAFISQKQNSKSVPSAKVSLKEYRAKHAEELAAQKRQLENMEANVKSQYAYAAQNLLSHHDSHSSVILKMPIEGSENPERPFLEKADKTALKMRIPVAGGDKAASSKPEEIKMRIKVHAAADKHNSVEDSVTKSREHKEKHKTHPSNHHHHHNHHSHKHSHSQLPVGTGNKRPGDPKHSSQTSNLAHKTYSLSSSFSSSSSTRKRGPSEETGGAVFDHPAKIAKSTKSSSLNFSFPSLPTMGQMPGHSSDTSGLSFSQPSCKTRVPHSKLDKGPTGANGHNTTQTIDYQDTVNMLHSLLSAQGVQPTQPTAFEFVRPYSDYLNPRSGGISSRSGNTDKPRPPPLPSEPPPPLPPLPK
The assay can be described thus: Recombinant protein kinase assay, CDK9/cyclin T. The class given is biochemical. To be noted: 15 µM ATP.

Assay [3] addresses T1, DYRK1A. The assay can be described thus: Brain DYRK1A catalytic activity after treatment, Ts65Dn mice. The class given is in vivo. The note with it: 19 days daily i.p., normalized to GSK-3α/β activity. Here is the method: as §1
Assay [4] concerns Tg(Dyrk1a) mice. The assay can be described thus: Place object location (POR) spatial memory in Tg(Dyrk1a) mice. The class given is in vivo, mouse. The note with it: L41-treated Tg(Dyrk1a) mice.
In the next assay the test system is Dp1Yey mice. The assay can be described thus: Resting state fMRI brain functional connectivity, Dp1Yey mice. To be noted: L41-treated vs vehicle-treated Dp1Yey mice.
The target of another assay is T3, CK2 (Homo sapiens, UniProt P68400).
T3 construct: Cochet
T3 sequence (P68400 whole entry): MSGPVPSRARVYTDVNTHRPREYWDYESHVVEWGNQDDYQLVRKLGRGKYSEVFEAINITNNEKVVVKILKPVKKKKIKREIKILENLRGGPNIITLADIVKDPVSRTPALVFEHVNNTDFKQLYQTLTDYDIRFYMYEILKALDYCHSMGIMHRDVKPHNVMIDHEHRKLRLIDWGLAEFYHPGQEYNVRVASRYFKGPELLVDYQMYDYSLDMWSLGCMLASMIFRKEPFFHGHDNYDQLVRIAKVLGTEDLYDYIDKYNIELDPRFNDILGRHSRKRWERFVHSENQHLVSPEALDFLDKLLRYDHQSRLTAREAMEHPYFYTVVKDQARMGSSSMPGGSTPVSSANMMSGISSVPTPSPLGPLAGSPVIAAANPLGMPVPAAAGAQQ
The assay can be described thus: Recombinant protein kinase assay, CK2. The assay is classed as biochemical. The note with it: 15 µM ATP.

This is an account of results in article PMC6176987, “Correction of cognitive deficits in mouse models of Down syndrome by a pharmacological inhibitor of DYRK1A” (Disease Models & Mechanisms, 2018).

Sequence of CLK3 (O35492 whole entry): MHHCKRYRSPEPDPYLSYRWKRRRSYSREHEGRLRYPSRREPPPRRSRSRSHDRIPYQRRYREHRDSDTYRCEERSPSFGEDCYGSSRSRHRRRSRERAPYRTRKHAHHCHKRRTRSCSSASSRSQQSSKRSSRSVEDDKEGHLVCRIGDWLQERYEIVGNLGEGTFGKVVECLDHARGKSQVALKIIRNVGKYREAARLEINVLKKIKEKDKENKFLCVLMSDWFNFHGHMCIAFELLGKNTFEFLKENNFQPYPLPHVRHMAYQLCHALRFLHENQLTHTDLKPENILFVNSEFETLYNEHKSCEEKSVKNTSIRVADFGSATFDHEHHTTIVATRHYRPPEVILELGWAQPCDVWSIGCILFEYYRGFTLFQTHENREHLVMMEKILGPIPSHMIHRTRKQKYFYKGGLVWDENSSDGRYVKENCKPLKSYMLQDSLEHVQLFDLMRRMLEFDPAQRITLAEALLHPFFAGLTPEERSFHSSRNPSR

For the compound `O=C1NC(Nc2ccccc2)=N/C1=C\c1ccc2c(c1)OCO2` [L41], the “Effect on working memory (Y-maze)” value in the assay on Tg(Dyrk1a) mice [1] is “no restoring effect”. In addition, the 50% inhibitory concentration (IC50) on CLK3 was 1.2 µM; at CDK9/cyclin T it was greater than 10 µM; at CK2, 0.51 µM. The “Tg(Dyrk1a) brain DYRK1A activity” value at DYRK1A [2] (24 h after the last treatment of 19 days) is reported as “normalized to wt levels”; at DYRK1A [2] (48 h after the last treatment of 19 days) it was “no more effects”; at DYRK1A [2] (12 days of treatment), “normalized”; at DYRK1A [2] (19 days of treatment), “normalized”. Further, at DYRK1A [2] (5 days of treatment), the “DYRK1A inhibition in Tg(Dyrk1a) mice brains” value is on record as “not significant”. Also, the “Reduction of brain DYRK1A activity” value is on record as roughly 30% on DYRK1A [2] (19 days daily i.p., normalized to GSK-3α/β activity) and roughly 30% at DYRK1A [3]. Moreover, in the assay with Dyrk1a mRNA, the “Effect on Dyrk1a mRNA levels” value is given as “did not modify”. In the assay with Ts65Dn mice, the NOR test outcome is reported as “rescue”. Further, the “Effect on place memory (place object location)” value with Tg(Dyrk1a) mice [4] is “no restoring effect”. The “Effect on altered default mode network (DMN) pattern” value in the assay with Dp1Yey mice is given as “rescued”.
